Data as given in US12091402B2 (Avilar Therapeutics, Inc., priority 2021, dated 2024).

What was measured:
[1] = molecular target: T1, ASGPR receptor on the cell surface (HepG2 cells) (Homo sapiens, UniProt P07306); test: Ternary complex formation assay (flow cytometry, HepG2); format: cell-based; settings: HepG2 cells
T1 construct: host or cells: HepG2
T1 sequence (P07306 1-291): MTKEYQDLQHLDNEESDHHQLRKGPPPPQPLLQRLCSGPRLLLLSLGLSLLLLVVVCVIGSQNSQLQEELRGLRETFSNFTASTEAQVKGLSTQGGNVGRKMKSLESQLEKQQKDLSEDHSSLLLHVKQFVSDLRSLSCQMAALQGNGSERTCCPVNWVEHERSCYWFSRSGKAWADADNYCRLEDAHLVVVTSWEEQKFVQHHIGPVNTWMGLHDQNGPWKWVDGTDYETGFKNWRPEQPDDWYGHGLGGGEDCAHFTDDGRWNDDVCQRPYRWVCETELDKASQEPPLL
T1 sequence (P07307 1-311 partner): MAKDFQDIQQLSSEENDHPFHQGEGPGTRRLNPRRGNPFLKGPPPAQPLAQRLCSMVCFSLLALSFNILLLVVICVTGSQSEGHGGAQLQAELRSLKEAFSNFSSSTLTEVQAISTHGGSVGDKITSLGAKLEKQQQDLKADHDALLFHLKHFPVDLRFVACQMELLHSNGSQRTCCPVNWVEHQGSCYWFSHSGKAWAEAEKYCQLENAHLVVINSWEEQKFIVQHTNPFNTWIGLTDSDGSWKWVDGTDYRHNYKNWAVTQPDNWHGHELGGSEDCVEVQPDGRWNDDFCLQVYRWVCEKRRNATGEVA
Method in brief: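 HepG2 cells (1×10^5/well) incubated 1 h at 4 °C with 100 nM AF488-labeled anti-human IgG plus serial IgG-based degrader, or 100 nM AF488 rabbit anti-DNP plus serial DNP-based degrader. After washing, cell-associated AF488 MFI read by flow cytometry; peak MFI marks optimal degrader concentration for ternary complex.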

[2] = system: HepG2 cells; test: Cellular degradation assay of anti-DNP-AF488 antibody; format: cell-based; settings: 0.2 μM compound, 1 μM anti-DNP-AF488, 16 hours uptake then wash, FIG. 3
Procedure: To observe degradation of IgG in cells, a mixture of fluorescently labeled DNP antibody and compound are added to HepG2 cells and cellular uptake occurs over 16 hours. Cells are then washed to remove extracellular antibody and compound and samples are taken at various time points after uptake to detect levels of intact and/or proteolytic fragments of the antibody heavy and light chains over time as a kinetic measurement of antibody degradation.
HepG2 cells were seeded in DMEM supplemented with 10% FBS into a 12-well plate at a final amount of 20,000 cells per well. After about 18 hours incubation, 1 μM anti-DNP-AF488 antibody and/or 0.2 μM Compound 28 was added to the cells and incubated for 16 hours. The next day, cells were washed once with cell culture media and replaced with cell culture medium lacking anti-DNP-AF488 antibody or Compound 28 and incubated for 0, 1, 2, 4, and 8 hours, respectively. Cells were washed and lysed in RIPA buffer with protease inhibitors. Cell lysates were separated by SDS-PAGE and the fluorescent anti-DNP-AF488 antibody degradation products were visualized by the iBright 1500 gel reader (ThermoFisher). Intracellular heavy and light chains of DNP-IgG are observed after 16 hours of uptake into HepG2 cells. […]

[3] = system: IgG-AF488; test: Western blot of IgG-AF488 degradation (Example 5, FIG. 10); format: cell-based
[4] = molecular target: T2, ASGPR (Homo sapiens, UniProt P07306); test: Affinity to ASGPR by surface plasmon resonance (SPR)
T2 sequence (P07306 1-291): T1 sequence (P07306 1-291)

[5] = system: DNP-IgG; test: Colocalization imaging of DNP-IgG uptake (Example 4, FIG. 11); format: cell-based
[6] = system: HepG2 cells; test: Cellular uptake assay of AF488-labeled antibody (HepG2); format: cell-based
Method in brief: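 Ternary-complex uptake via ASGPR was imaged after fixation: the read-out is AF488-positive HepG2 cells divided by total DAPI nuclei. Degrader dilutions (IgG- or DNP-based, 0.1% DMSO final) were co-incubated 6 h at 37° C. with 100 nM of the corresponding fluorescent antibody.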

[7] = system: HepG2 cells; test: Cellular co-localization study (LAMP2 immunofluorescence); format: cell-based; settings: 100 nM compound, 100 nM AF488-labeled DNP antibodies, 8 hours, FIG. 4
Procedure: To confirm that DNP-IgG was trafficked to the lysosome following uptake by the HepG2 cells, cells were stained with the lysosomal marker LAMP2, and the subcellular location of AF488-labeled DNP-IgG was visualized by immunofluorescence microscopy.
HepG2 cells were plated in DMEM supplemented with 10% FBS incubated for approximately 18 hours at 37° C./5% CO2. AF488-labeled DNP antibodies (100 nM) and either DMSO or 100 nM of Compound 28 were added to the cells and incubated at 37° C. for an additional 8 hours. Cells were fixed with 100% methanol for 20 minutes at −20° C. followed by incubation with blocking buffer (1×PBS containing 5% normal goat serum and 0.1% Triton X-100) for 1 hour at room temperature. Cells were stained with anti-LAMP2 (Abcam) at 4° C. for about 18 hours followed by treatment with goat anti-mouse IgG-AF647 for 2 hours at room temperature. Nuclei were stained with DAPI. Pictures were taken on a Leica fluorescence microscope at 40× magnification.

[8] = molecular target: T3, TNF (Homo sapiens, UniProt P01375); test: Western blot of ASGPR mediated uptake of TNF (Example 12, FIG. 25); format: cell-based
[9] = molecular target: T3, TNF; test: Western blot of TNF degradation over time (Example 11, FIG. 24); format: cell-based; settings: 0.5 μM compound
[10] = molecular target: TNFα (Homo sapiens, UniProt P01375); test: TNF FP assay; format: binding; settings: TNF 20 nM, 25° C., 2 hours; read-out: TNFα FP IC50 KD
Procedure: TNF (20 nM) and Compound 36 in 47 mM HEPES pH 6.5, 47 mM NaCl, 0.9 mM EDTA, 0.007% Triton X-100 were incubated at 25° C. for 2 hours. Fluorescence data was read with an Envision and plotted versus Compound 36 concentration and fit to a single-site binding model. This assay was used to calculate the FP data in Table 7.

T3 sequence (P01375 77-233 limits assumed): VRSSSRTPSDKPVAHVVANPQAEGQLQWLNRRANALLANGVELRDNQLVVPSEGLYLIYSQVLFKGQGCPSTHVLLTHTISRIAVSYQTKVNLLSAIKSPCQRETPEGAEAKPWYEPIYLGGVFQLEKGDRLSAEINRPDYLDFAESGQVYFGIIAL
Sequence of TNFα (P01375 77-233 limits assumed): as above

| ASGPR mediated uptake of TNF (western blot) [8] | degradation of TNF over time (western blot) [9] | ASGPR kd ([4]; Table 7) [s⁻¹] | IC50 [10] [nM] | Compound | EC50 ([1]; EC50, half-maximal concentration with respect to the peak MFI (ternary complex formation), AF488-labeled DNP antibody, FIG. 1) [nM] | EC50 ([1]; Ternary Complex EC50 (nM), 100 nM AF488-labeled antibody, 1 hour at 4° C., class symbols) [nM] | Loss of intact heavy chain of DNP-IgG observed after [2] [h] | Loss of intact light chain of DNP-IgG observed after [2] [h] | degradation of IgG-AF488 (western blot) [3] | Kd [4] [nM] | uptake of DNP-IgG (colocalization image) [5] | EC50, half-maximal concentration with respect to the peak ratio of antibody-positive cells (cellular uptake) ([6]; DNP-antibody, HepG2 cells, FIG. 2) [nM] | EC50 ([6]; Homo sapiens, HepG2, 6 h, read-out: Uptake Assay EC50 (nM)) [nM] | Uptake of DNP-IgG and co-localization with lysosomal marker LAMP2 [7] |
| --- | --- | --- | --- | --- | --- | --- | --- | --- | --- | --- | --- | --- | --- | --- |
|  |  |  |  | O=C(CCOCC(COCCC(=O)NCCOCCOCCOCCOC[C@H]1OC[C@@H](Nc2nc(Cl)ns2)[C@@H](O)[C@H]1O)NC(=O)COCCOCCOCCNc1ccc([N+](=O)[O-])cc1[N+](=O)[O-])NCCOCCOCCOCCOC[C@H]1OC[C@@H](Nc2nc(Cl)ns2)[C@@H](O)[C@H]1O [Compound 28, 3,3′-((2-(2-(2-(2-(2-((2,4-dinitrophenyl)amino)ethoxy)ethoxy)ethoxy)acetamido)propane-1,3-diyl)bis(oxy))bis(N-(1-((2R,3R,4R,5R)-5-((3-chloro-1,2,4-thiadiazol-5-yl)amino)-3,4-dihydroxytetrahydro-2H-pyran-2-yl)-2,5,8,11-tetraoxatridecan-13-yl)propanamide)] | 4.7 | < 100 | 1 | 8 | degradation of IgG-AF488 | < 100 | uptake of DNP-IgG | 3.8 | < 100 | DNP-IgG was taken up into the cells and co-localized with the lysosomal marker LAMP2 |
| ASGPR mediated uptake of TNF | degradation of TNF | <0.01 | < 500 | O=C(CCOCC(COCCC(=O)NCCOCCOCCOCCOC[C@H]1OC[C@H](Nc2nccc(C(F)(F)F)n2)[C@@H](O)[C@H]1O)NC(=O)COCCOCCOCC(=O)N1CCN(Cc2ccc(-c3c[nH]c4ccncc34)c(OCCc3ccc(-c4cccc5ccncc45)cc3)c2)CC1)NCCOCCOCCOCCOC[C@H]1OC[C@H](Nc2nccc(C(F)(F)F)n2)[C@@H](O)[C@H]1O [Compound 36, 3,3′-((2-(2-(2-(2-(2-(4-(3-(4-(isoquinolin-8-yl)phenethoxy)-4-(1H-pyrrolo[3,2-c]pyridin-3-yl)benzyl)piperazin-1-yl)-2-oxoethoxy)ethoxy)ethoxy)acetamido)propane-1,3-diyl)bis(oxy))bis(N-(1-((2R,3R,4R,5S)-3,4-dihydroxy-5-((4-(trifluoromethyl)pyrimidin-2-yl)amino)tetrahydro-2H-pyran-2-yl)-2,5,8,11-tetraoxatridecan-13-yl)propanamide)] |  |  |  |  |  | < 1 |  |  |  |  |
